The term EC50 denotes the midpoint of the concentration-response curve. Low values mean higher potency in that assay, high ones lower potency in that assay.

This assay relates to GLP-1 receptor. Put plainly: Evaluation of agonistic activity on GLP-1 receptor (CRE-luciferase reporter in HEK293 cells). Type of assay: cell-based. The note with it: HEK293 cells stably expressing CRE-luciferase reporter system; cellular level. From the text: GLP-1 receptor is a Gs-coupled GPCR. CRE-luciferase reporter system was stably expressed in human embryonic kidney epithelial cell line HEK293 used for evaluation. Therefore, once the receptor was activated, the enhancement of intracellular concentration of the second messenger cAMP through Gs signal pathway would initiate the expression of the luciferase gene in the reporter system. The ability of the test compounds to stimulate and activate GLP-1 receptor was reflected by the detected expression level of the luciferase reporter gene.
In general terms: In a reporter assay the amount or activity of a reporter protein is the signal.

“[Cys^21(mPEG5000-MAL)]Exendin-4 [Compound 1]”: a half-maximal effect (EC50) was put at 22.5 nM.

The values are drawn from patent US9260534B2, “Site-directed PEG-modified exendin-4 analogs and uses thereof” (priority 2010, dated 2016).
